Reference: patent US8173649B2, “Glucokinase activator” (Kyorin Pharmaceutical Co., Ltd., priority 2006, dated 2012)
Blank lines part the entries; values can stand above or below the molecule they belong to.

What was measured:
ICR mice = experiment: Hypoglycemic activity test; format: in vivo; settings: statement in words in the description
Description: Using male 7- to 9-week-old ICR mice (Charles River Laboratories Japan), the effect of each test compound on the blood glucose levels was observed. Specifically, each compound was dissolved in a 60:40 mixture of Gelucire44/14 (Gatefosse) and PEG400 and was orally administered to the animals after a 2-hour fasting period (30 mg/kg, 10 mL/kg). Using a tube coated with dipotassium ethylenediamine tetraacetate, blood samples were collected from the tail vein immediately before administration (Pre-value), and 0.5, 2 and 4 hours after administration. The blood samples were centrifuged (4° C., 3,600 g, 3 min) to obtain plasma samples.
Each sample was diluted 5-fold with physiological saline and the blood glucose level was measured using glucose CII-test Wako (Wako Pure Chemical Industries). 10 μL each of one of the samples, physiological saline and a 100 mg/dL standard glucose solution (200 mg/dL standard glucose solution diluted two-fold with physiological saline) were placed in each well of a 96-well flat plate. 150 μL of a color-forming solution was added to each well and the plate was left at 37° C. for 5 min to allow the solution to develop color. Using a Lucy2 luminescence reader (Aloka), the measurements were taken at OD=492 nm. The decrease in the sigma glucose (mean decrease in the glucose levels at each blood collection point relative to the Pre-value) was determined from the decrease in the glucose level at each blood collection point relative to the Pre-value.

[1] = In vitro liver microsome metabolic stability test, Method 1, human; format: in vitro ADME; settings: microsomes
Description: (§1) In a glass test tube, each test compound was incubated with a solution containing liver microsomes of human (Xenotech) or murine (originally prepared from male 7-week-old ICR mice; Charles River Laboratories Japan) origin at 37° C. for 5 min to evaluate the metabolic stability of the compound. The incubation mixture contained 100 mM potassium phosphate buffer (pH 7.4, Wako Pure Chemical Industries), 3 mM MgCl2 (Wako Pure Chemical Industries), 5 mM glucose-6-phosphate (Roche), 1 mM EDTA (Tokyo Chemical Industry), 1 I.U. glucose 6-phosphate dehydrogenase (Roche) and 1 mg/mL liver microsome. A test compound was dissolved in DMSO and the solution was added to the reaction mixture to a final concentration of 1 μM. The metabolic process was initiated by the addition of an NADPH (Roche) solution to a final concentration of 1 mM and was terminated after 5 min by the addition of an equal volume of acetonitrile (Fischer). After termination of the process, the supernatant was separated by centrifugation and analyzed by a liquid chromatography-equipped mass spectrometer (SHIMADZU 2010A, Shimadzu) for the concentration of unchanged product.

[2] = In vitro liver microsome metabolic stability test, Method 1, murine; format: in vitro ADME, mice; settings: mouse, microsomes
Description: as §1

[3] = In vivo pharmacokinetics test (oral bioavailability); design: species or system mice; settings: male, ICR, mouse, plasma, 2 μmol/kg
Description: Using male 6-week-old ICR mice (Charles River Laboratories Japan), the oral bioavailability of each test compound was evaluated. Specifically, each test compound was dissolved in dimethylsulfoxide (DMSO, Sigma) and the solution was added to a 1/15 M aqueous solution of sodium dihydrogen phosphate (Wako Pure Chemical Industries) to a concentration of 200 μM. DMSO was added to a final concentration of 30%. The resulting solution was administered to animals. As an intravenous injection group, a group of ICR mice, fasted overnight, were injected in their tail veins with the test compound solution (1 μmol/kg, 5 mL/kg). 5, 15 and 30 minutes after and 1, 2, 4, 8 and 24 hours after the intravenous administration, blood samples were collected from the eyeground of each animal using a heparin-coated capillary tube. […] 10 μL of the separated plasma was diluted with 100 μL of physiological saline and 10 μL of dimethylsulfoxide (sigma) and analyzed by a liquid chromatography-equipped triple quadrupole mass spectrometer (API-3000, Applied Biosystems) for the plasma concentration of unchanged product. The area under the plasma concentration-time curve (AUC) was determined by the trapezoidal method. The bioavailability of a test compound was determined by dividing the average AUC of the oral administration group corrected for the dose by the average AUC of the intravenous administration group.

in vitro = settings: microsomes, pH 7.4
Description: In a glass test tube, each test compound was incubated with a solution containing liver microsomes of human (Xenotech) or murine (originally prepared from male 7-week-old ICR mice; Charles River Laboratories Japan) origin at 37° C. for 25 min to evaluate the metabolic stability of the compound. The incubation mixture contained 100 mM potassium phosphate buffer (pH 7.4, Wako Pure Chemical Industries), 3 mM MgCl2 (Wako Pure Chemical Industries), 5 mM glucose-6-phosphate (Roche), 1 mM EDTA (Tokyo Chemical Industry), 1 I.U. glucose 6-phosphate dehydrogenase (Roche) and 0.2 mg/mL liver microsome. A test compound was dissolved in DMSO and the solution was added to the reaction mixture to a final concentration of 1 μM. The metabolic process was initiated by the addition of an NADPH (Roche) solution to a final concentration of 1 mM and was terminated after 25 min by the addition of an equal volume of acetonitrile (Fischer). After termination of the process, the supernatant was separated by centrifugation and analyzed by a liquid chromatography-equipped mass spectrometer (SHIMADZU 2010A, Shimadzu) for the concentration of unchanged product.

Compound: CS(=O)(=O)c1ccc([C@H](CC2CC(F)C(F)C2)C(=O)Nc2nccs2)cc1 (single isomer, unassigned; (+)) [compound 2, (+)-3-[(1α,3α,4α)-3,4-difluorocyclopentyl]-2-(4-(methylsulfonyl)phenyl)-N-(thiazole-2-yl)propionamide]
hypoglycemic activity (ICR mice): do not exhibit high hypoglycemic activity

Compound: CS(=O)(=O)c1ccc(C(CC2CC(F)C(F)C2)C(=O)Nc2nccs2)cc1 (single isomer, unassigned; (+)) [compound 8, (+)-3-[(1β,3α,4α)-3,4-difluorocyclopentyl]-2-(4-(methylsulfonyl)phenyl)-N-(thiazole-2-yl)propionamide]
hypoglycemic activity (ICR mice): do not exhibit high hypoglycemic activity

metabolic clearance [1]: ≤ 0.06 mL/min/mg protein
metabolic clearance [2]: ≤ 0.06 mL/min/mg protein
Compound: Cn1ccc(NC(=O)C(CC2CC(F)C(F)C2)c2ccc(S(C)(=O)=O)cc2)n1 (single isomer, unassigned; (-)) [compound 3, (−)-3-[(1α,3α,4α)-3,4-difluorocyclopentyl]-2-(4-(methylsulfonyl)phenyl)-N-(1-methylpyrazole-3-yl)propionamide]

microsomal CLint at 1 μM ([1]; pH 7.4): ≤ 60 µL/min/mg
microsomal CLint at 1 μM ([2]; male, ICR, pH 7.4): ≤ 60 µL/min/mg
bioavailability [3]: ≥ 50%
microsomal CLint at 1 μM (in vitro; human): ≤ 50 µL/min/mg
microsomal CLint at 1 μM (in vitro; male, ICR, mouse): ≤ 50 µL/min/mg
Compound: CS(=O)(=O)c1ccc(C(C[C@H]2C[C@@H](F)[C@@H](F)C2)C(=O)Nc2nccs2)cc1 (single isomer, unassigned; (-)) [Compound No. 1, (−)-3-[(1α,3α,4α)-3,4-difluorocyclopentyl]-2-(4-(methylsulfonyl)phenyl)-N-(thiazole-2-yl)propionamide]

Compound: CS(=O)(=O)c1ccc(C(CC2CC(F)C(F)C2)C(=O)Nc2nccs2)cc1 (single isomer, unassigned; (-)) [compound 7, (−)-3-[(1β,3α,4α)-3,4-difluorocyclopentyl]-2-(4-(methylsulfonyl)phenyl)-N-(thiazole-2-yl)propionamide]
hypoglycemic activity (ICR mice): do not exhibit high hypoglycemic activity
